# Data from paper PMC4125495 (DNA repair, 2014).
# Where two headings read alike, the source gives them in different places.
# Experiments:
# [1] = system: TDP1-/- cells; test: Secondary screening cell viability assay; details: 5 and 10 nM CPT
# [2] = system: hTDP1 cells; test: Secondary screening cell viability assay; details: 15 and 20 nM CPT
# [3] = system: DT40 hTDP1 cells; details: no CPT vs CPT (Table 1)
# [4] = biological target: PARP1 (Gallus gallus, UniProt P26446); test: PAR ELISA assay; format: cell-based
# [5] = system: BRCA2tr/- cells; test: Cell viability assay; format: cell-based, chicken; details: single agent, compared with PARP1-/- and hTDP1 cells
# [6] = system: BRCA2tr/- cells; details: cited from earlier work
# [7] = read-out: IC50 Poly (ADP-ribose) lation, PAR ELISA
# Sequence of PARP1 (P26446 whole entry): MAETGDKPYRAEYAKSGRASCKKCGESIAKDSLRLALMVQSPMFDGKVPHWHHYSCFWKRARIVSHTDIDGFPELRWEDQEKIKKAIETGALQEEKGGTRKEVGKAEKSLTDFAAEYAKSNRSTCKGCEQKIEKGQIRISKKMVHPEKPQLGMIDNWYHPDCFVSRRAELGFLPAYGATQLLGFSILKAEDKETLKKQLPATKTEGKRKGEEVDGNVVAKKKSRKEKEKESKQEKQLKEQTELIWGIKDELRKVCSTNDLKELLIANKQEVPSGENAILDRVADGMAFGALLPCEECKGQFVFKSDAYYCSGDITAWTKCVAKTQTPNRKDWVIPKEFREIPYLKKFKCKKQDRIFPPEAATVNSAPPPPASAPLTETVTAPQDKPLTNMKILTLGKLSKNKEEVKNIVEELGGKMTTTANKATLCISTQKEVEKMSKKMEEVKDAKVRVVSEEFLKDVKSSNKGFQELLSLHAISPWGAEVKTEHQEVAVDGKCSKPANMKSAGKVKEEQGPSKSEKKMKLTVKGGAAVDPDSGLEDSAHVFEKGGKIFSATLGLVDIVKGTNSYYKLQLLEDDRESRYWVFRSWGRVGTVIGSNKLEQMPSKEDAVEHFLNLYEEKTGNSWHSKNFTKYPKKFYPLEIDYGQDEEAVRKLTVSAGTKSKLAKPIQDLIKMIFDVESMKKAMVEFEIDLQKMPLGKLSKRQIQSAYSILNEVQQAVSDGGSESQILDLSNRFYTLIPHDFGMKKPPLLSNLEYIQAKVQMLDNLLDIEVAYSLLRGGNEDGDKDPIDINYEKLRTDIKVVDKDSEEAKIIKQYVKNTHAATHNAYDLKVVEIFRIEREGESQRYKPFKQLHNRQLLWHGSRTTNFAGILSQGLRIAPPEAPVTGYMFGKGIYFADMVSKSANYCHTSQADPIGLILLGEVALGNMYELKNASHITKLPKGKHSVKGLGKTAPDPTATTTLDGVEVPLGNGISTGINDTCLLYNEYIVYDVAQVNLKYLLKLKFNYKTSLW
"IC50 [4, 7] [µM]",SMILES,potentiating (synergistic) effect with CPT in TDP1-/- cells [1],potentiating (synergistic) effect with CPT in hTDP1 cells [2],fold potentiation of cytotoxicity in the presence of CPT [3] [fold],cytotoxic effect in BRCA2tr/- cells [5],cytotoxic effect in BRCA2tr/- cells [6],IC50 [4] [µM]
< 0.02,CC(=O)Nc1ccc2c(c1)[nH]c(=O)c1ccccc12 [Cpd1],without showing any apparent potentiating effect,greatest potentiating effect,166,selectively cytotoxic,,
4.6,O=C(Nc1cccc2c(=O)[nH][nH]c(=O)c12)c1ccc([N+](=O)[O-])cc1 [Cpd5],,,,,,
,"C[C@]1(c2nc3c(C(N)=O)cccc3[nH]2)CCCN1 [Veliparib, reference compound]",lack of synergistic effect,,466,,selectively cytotoxic,< 0.02
